According to paper PMC10850145, “Hormonal steroids induce multidrug resistance and stress response genes in Neisseria gonorrhoeae by binding to MtrR” (Nature Communications, 2024):
Where “and” joins values, the source holds several entries; their conditions need not be identical. Equal entries are not always repeated. Entries after “also recorded” stand apart in the source; their conditions may differ. Where two headings read alike, the source gives them in different places.

Experiments:
gonococcal strain FA19 = assay: MIC of steroidal hormones on GC agar, strain FA19; assay type: cell-based; conditions: Neisseria gonorrhoeae, strain FA19, GC agar, read-out: MIC
Protocol: (§1) To determine the minimal inhibitory concentrations (MICs) by the steroidal hormones and their effect on antimicrobial susceptibility, 5 x 10^5 CFU and 1:5 serial dilutions of gonococcal strains were spotted on GC agar plates containing different concentrations of antibiotics and/or hormones as indicated. Antimicrobial susceptibility was assessed after 24 h incubation.
(§2) Table S1. Steroidal hormones are substrates of the MtrCDE efflux pump
(§3) Progesterone Testosterone
(§4) *Minimal inhibition concentration is defined by the lowest concentration at which visible growth is […]

MtrR = molecular target: T1, MtrR (Neisseria gonorrhoeae, UniProt P39897); assay: Isothermal titration calorimetry, ligand binding to MtrR WT; conditions: equilibrium dissociation constant (Kd), MtrR WT, ITC, 25 °C, 1% MeOH
T1 construct: Hexa-histidine tag with TEV protease cleavage site (N, cleaved yes); made in house; host or cells: E. coli Rosetta Gami B(DE3) pLysS
T1 sequence (P39897 whole entry): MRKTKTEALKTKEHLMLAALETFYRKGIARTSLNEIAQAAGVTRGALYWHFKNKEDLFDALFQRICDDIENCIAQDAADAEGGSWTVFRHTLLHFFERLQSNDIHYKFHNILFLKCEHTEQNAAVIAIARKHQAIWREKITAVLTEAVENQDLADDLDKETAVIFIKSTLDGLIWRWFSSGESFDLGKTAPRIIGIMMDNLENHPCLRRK

MtrR D171A = molecular target: T2, MtrR D171A (Neisseria gonorrhoeae, UniProt P39897, D171A); assay: biochemical; assay type: binding
T2 construct: Hexa-histidine tag with TEV protease cleavage site (N, cleaved yes); made in house; host or cells: E. coli Rosetta Gami B(DE3) pLysS
T2 sequence (P39897 whole entry D171A): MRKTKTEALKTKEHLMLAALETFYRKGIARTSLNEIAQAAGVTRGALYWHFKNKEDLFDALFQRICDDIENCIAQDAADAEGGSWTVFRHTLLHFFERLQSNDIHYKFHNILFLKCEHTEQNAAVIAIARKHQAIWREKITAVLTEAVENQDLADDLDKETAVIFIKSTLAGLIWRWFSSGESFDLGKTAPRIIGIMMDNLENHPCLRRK

[1] = molecular target: T3, MtrR binding to mtrCDE operator (21mer) (Neisseria gonorrhoeae, UniProt P39897); assay: Fluorescence polarization based DNA binding assay, mtrCDE operator; conditions: mtrCDE 21mer + 125 µM steroid
T3 construct: Hexa-histidine tag with TEV protease cleavage site (N, cleaved yes); made in house; host or cells: E. coli Rosetta Gami B(DE3) pLysS
T3 sequence (P39897 whole entry): as the sequence (P39897 whole entry) above
Protocol: Fluorescence polarization based-DNA binding data were collected using a Panvera Beacon 2000 fluorescence polarization system (Invitrogen) and analyzed with Prism (Graphpad Software 9, 10). Purified MtrR was buffer exchanged into “DNA” binding buffer (150 mM NaCl, 20 mM Tris-HCl pH 7.5, 2.5% glycerol, 1 mM TCEP). […] The reported oligoduplexes containing the rpoH and mtrCDE binding site differ in lengths, 27mer and 21mer, respectively[17],[21]. […] BSA and dI-dC are included as carriers and to control for nonspecific DNA binding. Samples were excited at 490 nm and polarized emissions measured at 530 nm. Controls were run with no protein (DNA ± methanol, hormonal steroids) to ensure that millipolarization values were not affected by experimental conditions alone. The binding affinity of protein for DNA was determined using the following equation: P = Pf + (Pb – Pf) [M] / (Kd + [M]) where P is the measured polarization, Pf is the polarization of free DNA, Pb is the polarization of the completely bound DNA, Kd is the equilibrium dissociation constant, and M is the concentration of protein. Pb and Kd were determined by nonlinear least-squares analysis. At least three independent experimental measurements were averaged for each reported binding constant.

FA19 mtrD::kan (KH14) = assay: MIC of steroidal hormones on GC agar, FA19 mtrD::kan (KH14); assay type: cell-based, Neisseria gonorrhoeae
Protocol: as §1, §2, §3, §4

N. gonorrhoeae = test system: N. gonorrhoeae; design: method as in PMID 816438; conditions: listed as PTR; cited from earlier work
rpoH-lacZ expression = assay type: cell-based, Neisseria gonorrhoeae; conditions: for Miller units, single well: individual replicate; for Miller units, Mean: mean of 4 wells; for Miller units / β-galactosidase activity (Miller units): rpoH-lacZ, single replicate
MtrR R176E = molecular target: T4, MtrR R176E (Neisseria gonorrhoeae, UniProt P39897, R176E); assay: biochemical; assay type: binding
T4 construct: Hexa-histidine tag with TEV protease cleavage site (N, cleaved yes); made in house; host or cells: E. coli Rosetta Gami B(DE3) pLysS
T4 sequence (P39897 whole entry R176E): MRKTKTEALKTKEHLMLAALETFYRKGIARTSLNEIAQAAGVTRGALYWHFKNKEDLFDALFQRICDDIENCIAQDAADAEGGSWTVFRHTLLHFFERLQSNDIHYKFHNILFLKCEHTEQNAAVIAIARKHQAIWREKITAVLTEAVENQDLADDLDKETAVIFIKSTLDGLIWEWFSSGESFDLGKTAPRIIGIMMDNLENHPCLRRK

[2] = 6.25 µM hormone, plate columns 1-6 (WT)
[3] = 6.25 µM hormone, plate columns 7-12 (second strain, not WT)
[4] = 12.5 µM hormone, plate columns 1-6 (WT)
[5] = 12.5 µM hormone, plate columns 7-12 (second strain, not WT)
[6] = 25 µM hormone, plate columns 1-6 (WT)
[7] = 25 µM hormone, plate columns 7-12 (second strain, not WT)
[8] = 50 µM hormone, plate columns 1-6 (WT)
[9] = 50 µM hormone, plate columns 7-12 (second strain, not WT)
[10] = ΔmtrR + mtrR D171A in trans, 6.25 µM hormone
[11] = ΔmtrR + mtrR D171A in trans, 12.5 µM hormone
[12] = ΔmtrR + mtrR D171A in trans, 25 µM hormone
[13] = ΔmtrR + mtrR D171A in trans, 50 µM hormone

CC(=O)[C@H]1CC[C@H]2[C@@H]3CCC4=CC(=O)CC[C@]4(C)[C@H]3CC[C@]12C [Progesterone, progesterone]
MIC (gonococcal strain FA19; 24 h): 127 µM
MIC (gonococcal strain FA19): 40 µg/mL
Kd (MtrR): 2.75 ± 0.7 µM
Kd (MtrR D171A): 8.36 ± 2.5 µM
fluorescence polarization, MtrR titration ([1]; MtrR WT dimer 0.00 nM): 0.00 mP
fluorescence polarization, MtrR titration ([1]; MtrR WT dimer 3.83 nM): 3.14 mP
fluorescence polarization, MtrR titration ([1]; MtrR WT dimer 8.85 nM): 6.47 mP
fluorescence polarization, MtrR titration ([1]; MtrR WT dimer 11.32 nM): 7.37 mP and 3.83 mP and 6.23 mP
fluorescence polarization, MtrR titration ([1]; MtrR WT dimer 16.21 nM): 8.61 mP and 4.53 mP and 7.86 mP
fluorescence polarization, MtrR titration ([1]; MtrR WT dimer 35.50 nM): 11.01 mP and 7.99 mP and 10.09 mP
fluorescence polarization, MtrR titration ([1]; MtrR WT dimer 73.35 nM): 14.94 mP and 12.16 mP and 13.46 mP
fluorescence polarization, MtrR titration ([1]; MtrR WT dimer 110.67 nM): 19.14 mP and 15.56 mP and 17.23 mP
fluorescence polarization, MtrR titration ([1]; MtrR WT dimer 147.65 nM): 23.64 mP and 19.79 mP and 21.69 mP
fluorescence polarization, MtrR titration ([1]; MtrR WT dimer 220.59 nM): 29.74 mP and 25.09 mP and 27.23 mP
fluorescence polarization, MtrR titration ([1]; MtrR WT dimer 292.55 nM): 32.91 mP and 28.39 mP and 31.63 mP
fluorescence polarization, MtrR titration ([1]; MtrR WT dimer 363.86 nM): 35.71 mP and 31.19 mP and 34.99 mP
fluorescence polarization, MtrR titration ([1]; MtrR WT dimer 434.54 nM): 39.37 mP and 32.93 mP and 37.49 mP
fluorescence polarization, MtrR titration ([1]; MtrR WT dimer 504.61 nM): 40.97 mP and 36.33 mP and 40.13 mP
fluorescence polarization, MtrR titration ([1]; MtrR WT dimer 574.07 nM): 43.64 mP and 38.96 mP and 42.59 mP
fluorescence polarization, MtrR titration ([1]; MtrR WT dimer 711.46 nM): 46.37 mP and 42.63 mP and 45.23 mP
fluorescence polarization, MtrR titration ([1]; MtrR WT dimer 848.00 nM): 49.37 mP and 45.06 mP and 48.53 mP
MIC (FA19 mtrD::kan (KH14); Neisseria gonorrhoeae): 20 µg/mL and 64 µM
effect of mtrD deletion on MIC (FA19 mtrD::kan (KH14); vs FA19): lowered
growth inhibition of N. gonorrhoeae (N. gonorrhoeae): arrest N. gonorrhoeae growth; also recorded: most effective in growth inhibition
Miller units, single well (rpoH-lacZ expression; [2]): 42 Miller units and 34 Miller units and 33 Miller units
Miller units, Mean (rpoH-lacZ expression; [2]): 35 Miller units
Miller units, single well (rpoH-lacZ expression; [3]): 87 Miller units and 84 Miller units and 94 Miller units and 85 Miller units
Miller units, Mean (rpoH-lacZ expression; [3]): 87 Miller units
Miller units, single well (rpoH-lacZ expression; [4]): 35 Miller units and 36 Miller units and 31 Miller units and 38 Miller units
Miller units, Mean (rpoH-lacZ expression; [4]): 35 Miller units
Miller units, single well (rpoH-lacZ expression; [5]): 87 Miller units and 78 Miller units and 71 Miller units and 77 Miller units
Miller units, Mean (rpoH-lacZ expression; [5]): 78 Miller units
Miller units, single well (rpoH-lacZ expression; [6]): 60 Miller units and 61 Miller units and 39 Miller units and 59 Miller units
Miller units, Mean (rpoH-lacZ expression; [6]): 55 Miller units
Miller units, single well (rpoH-lacZ expression; [7]): 95 Miller units and 81 Miller units and 89 Miller units and 80 Miller units
Miller units, Mean (rpoH-lacZ expression; [7]): 86 Miller units
Miller units, single well (rpoH-lacZ expression; [8]): 66 Miller units and 65 Miller units and 44 Miller units
Miller units, Mean (rpoH-lacZ expression; [8]): 60 Miller units
Miller units, single well (rpoH-lacZ expression; [9]): 64 Miller units and 60 Miller units and 72 Miller units and 71 Miller units
Miller units, Mean (rpoH-lacZ expression; [9]): 67 Miller units
induction of rpoH expression (rpoH-lacZ expression; complemented (MtrR+) strains, increasing hormone): could be induced
induction of rpoH expression (rpoH-lacZ expression; loss of MtrR or MtrR-D171A strain): abrogated
Miller units (rpoH-lacZ expression; [10]): 94 Miller units
β-galactosidase activity (Miller units) (rpoH-lacZ expression; [10]): 87 Miller units and 84 Miller units and 85 Miller units
Miller units (rpoH-lacZ expression; [11]): 71 Miller units
β-galactosidase activity (Miller units) (rpoH-lacZ expression; [11]): 87 Miller units and 78 Miller units and 77 Miller units
Miller units (rpoH-lacZ expression; [12]): 89 Miller units
β-galactosidase activity (Miller units) (rpoH-lacZ expression; [12]): 95 Miller units and 81 Miller units and 80 Miller units
Miller units (rpoH-lacZ expression; [13]): 72 Miller units
β-galactosidase activity (Miller units) (rpoH-lacZ expression; [13]): 64 Miller units and 60 Miller units and 71 Miller units
β-galactosidase activity (Miller units) (rpoH-lacZ expression; ΔmtrR + mtrR WT in trans, 6.25 µM hormone): 42 Miller units and 34 Miller units and 33 Miller units
β-galactosidase activity (Miller units) (rpoH-lacZ expression; ΔmtrR + mtrR WT in trans, 12.5 µM hormone): 35 Miller units and 36 Miller units and 31 Miller units and 38 Miller units
β-galactosidase activity (Miller units) (rpoH-lacZ expression; ΔmtrR + mtrR WT in trans, 25 µM hormone): 60 Miller units and 61 Miller units and 39 Miller units and 59 Miller units
β-galactosidase activity (Miller units) (rpoH-lacZ expression; ΔmtrR + mtrR WT in trans, 50 µM hormone): 66 Miller units and 65 Miller units and 44 Miller units
β-galactosidase activity (Miller units) (rpoH-lacZ expression; ΔmtrR strain, 6.25 µM hormone): 315 Miller units and 172 Miller units and 146 Miller units
β-galactosidase activity (Miller units) (rpoH-lacZ expression; ΔmtrR strain, 12.5 µM hormone): 228 Miller units and 142 Miller units and 163 Miller units
β-galactosidase activity (Miller units) (rpoH-lacZ expression; ΔmtrR strain, 25 µM hormone): 253 Miller units and 160 Miller units and 118 Miller units
β-galactosidase activity (Miller units) (rpoH-lacZ expression; ΔmtrR strain, 50 µM hormone): 186 Miller units and 118 Miller units and 96 Miller units
Miller units (rpoH-lacZ expression; ΔmtrR, 6.25 µM hormone): 180 Miller units
Miller units (rpoH-lacZ expression; ΔmtrR, 12.5 µM hormone): 168 Miller units
Miller units (rpoH-lacZ expression; ΔmtrR, 25 µM hormone): 170 Miller units
Miller units (rpoH-lacZ expression; ΔmtrR, 50 µM hormone): 138 Miller units
β-galactosidase activity, rpoH-lacZ, Mean (rpoH-lacZ expression; strain WT (FA19/pLES94-rpoH), hormone 6.25 µM): 66 Miller units
β-galactosidase activity, rpoH-lacZ, Mean (rpoH-lacZ expression; strain WT (FA19/pLES94-rpoH), hormone 12.5 µM): 79 Miller units
β-galactosidase activity, rpoH-lacZ, Mean (rpoH-lacZ expression; strain WT (FA19/pLES94-rpoH), hormone 50 µM): 136 Miller units
activation of rpoH (rpoH-lacZ expression; strain producing MtrR R176E): almost no activation
β-galactosidase activity, rpoH-lacZ, Mean (rpoH-lacZ expression; strain ΔmtrR (FA19 ∆mtrR/pLES94-rpoH), hormone 6.25 µM): 203 Miller units
β-galactosidase activity, rpoH-lacZ, Mean (rpoH-lacZ expression; strain ΔmtrR (FA19 ∆mtrR/pLES94-rpoH), hormone 12.5 µM): 175 Miller units
β-galactosidase activity, rpoH-lacZ, Mean (rpoH-lacZ expression; strain ΔmtrR (FA19 ∆mtrR/pLES94-rpoH), hormone 25 µM): 175 Miller units
β-galactosidase activity, rpoH-lacZ, Mean (rpoH-lacZ expression; strain ΔmtrR (FA19 ∆mtrR/pLES94-rpoH), hormone 50 µM): 134 Miller units
β-galactosidase activity, rpoH-lacZ, Mean (rpoH-lacZ expression; strain ΔmtrR + mtrR D171A (pGCC3-mtrR D171A), hormone 6.25 µM): 87 Miller units
β-galactosidase activity, rpoH-lacZ, Mean (rpoH-lacZ expression; strain ΔmtrR + mtrR D171A (pGCC3-mtrR D171A), hormone 12.5 µM): 78 Miller units
β-galactosidase activity, rpoH-lacZ, Mean (rpoH-lacZ expression; strain ΔmtrR + mtrR D171A (pGCC3-mtrR D171A), hormone 25 µM): 86 Miller units
β-galactosidase activity, rpoH-lacZ, Mean (rpoH-lacZ expression; strain ΔmtrR + mtrR D171A (pGCC3-mtrR D171A), hormone 50 µM): 67 Miller units
β-galactosidase activity, rpoH-lacZ, Mean (rpoH-lacZ expression; strain ΔmtrR + mtrR WT (pGCC3-mtrR), hormone 6.25 µM): 35 Miller units
β-galactosidase activity, rpoH-lacZ, Mean (rpoH-lacZ expression; strain ΔmtrR + mtrR WT (pGCC3-mtrR), hormone 12.5 µM): 35 Miller units
β-galactosidase activity, rpoH-lacZ, Mean (rpoH-lacZ expression; strain ΔmtrR + mtrR WT (pGCC3-mtrR), hormone 25 µM): 55 Miller units
β-galactosidase activity, rpoH-lacZ, Mean (rpoH-lacZ expression; strain ΔmtrR + mtrR WT (pGCC3-mtrR), hormone 50 µM): 60 Miller units
Kd (MtrR R176E): 8.43 ± 8.3 µM
